The subject of data set [1] is pancreatic cancer cell line PANC-1. As to conditions: within 24 hours; cited from earlier work.
Data set [2] deals with PANC-1 cells. Put plainly: In vitro cytotoxicity assay (WST-8 cell viability), nutrient deprived media. As to conditions: for CC50: Homo sapiens, PANC-1 cells, 24-hour incubation, WST-8 cell counting kit, nutrient deprived media (medium not restated at table), read-out: LC50 (the source's name). The class given is cell-based. As for the experimental part: (§1) PANC-1 cells, ranging from passage numbers 30-36 and 40-45, were seeded in 96-well plates at a density of 2.5×10^4 cells per well and incubated in fresh Dulbecco's modified Eagle's medium (DMEM, Sigma Aldrich) at 37° C. and 5% CO2 for 24 hours. Cells were then washed with PBS (Sigma Aldrich) and then subjected to the addition of either DMEM or nutrient deprived media (absence of glucose, amino acid and serum). Serially diluted coumarin compounds were added to the cells followed by a 24-hour incubation at 37° C. and 5% CO2. Cell morphology was then observed under an inverted microscope. Cells were then washed with PBS, and fresh DMEM and 10% WST-8 cell counting kit solution (Dojindo Molecular Technologies) were added to each well. The cells were incubated for 3-hours at 37° C. and 5% CO2. Absorbance values were measured using a plate reader at 450 nm, and cell viability was calculated using the following equation % Cell viability=[{Abstest sample−Absblank}/{Abscontrol−Absblank}]*100. The cell viability of compounds 2, 3 and 4 is seen in FIG. 1a.
(§2) The assay detailed above was performed additional times and results were obtained. Briefly, PANC-1 cells, ranging from passage numbers 30-36 and 40-45, were seeded in 96-well plates at a density of 2.5×10^4 cells per well density and incubated in fresh Dulbecco's modified Eagle's medium (DMEM, Sigma Aldrich) at 37° C., 5% CO2 for 24 hours. Cells were then washed with PBS (Sigma Aldrich) and then subjected to the addition of either nutrient rich media (NRM) or nutrient deprived media (NDM). Serially diluted coumarin compounds (5.5% DMSO in NDM) were added to the cells followed by a 24-hour incubation at 37° C., 5% CO2. Cell morphology was then observed under an inverted microscope. Cells were then washed with PBS, and fresh DMEM and 10% WST-8 cell counting kit (Dojindo Molecular Technologies) were added for a 3-hour incubation at 37° C., 5% CO2. Absorbance values were measured with a plate reader at 450 nm, and cell viability was calculated using the equation % Cell viability=[{Abstest sample−Absblank}/{Abscontrol−Absblank}]*100. The cell viability of compounds 2, 3 and 4 (e.g., viability of cells following treatment with compounds 2, 3, or 4 was assessed) is shown in FIG. 1b, and is consistent with the results shown in FIG. 1a. LC50 values were determined and are as follows.

In data set [3] the test system is PANC-1 cells. The data set is described as follows: In vitro cytotoxicity assay (WST-8 cell viability), nutrient rich media. The class given is cell-based. As for the experimental part:
as §1
as §2, with “Serially diluted coumarin compounds (5.5% DMSO in NDM) were added to the cells followed by a 24-hour incubation at 37° C., 5% CO2. Cell morphology was then observed under an inverted microscope. Cells were then washed with PBS, and fresh DMEM and 10% WST-8 cell counting kit (Dojindo Molecular Technologies) were added for a 3-hour incubation at 37° C., 5% CO2.” left out

Data set [4] deals with PANC-1 cells. Put plainly: Morphological change observation under inverted microscope, nutrient-deprived conditions. Type of data set: cell-based. As to conditions: 6.25 μM, 12.5 μM, and 25 μM, 24 hour incubation. As for the experimental part: as §1, with “Cells were then washed with PBS, and fresh DMEM and 10% WST-8 cell counting kit solution (Dojindo Molecular Technologies) were added to each well. The cells were incubated for 3-hours at 37° C. and 5% CO2.” left out, “The cell viability of compounds 2, 3 and 4 is seen in FIG. 1a.” left out
The assay detailed above was performed additional times and results were obtained. […] Absorbance values were measured with a plate reader at 450 nm, and cell viability was calculated using the equation % Cell viability=[{Abstest sample−Absblank}/{Abscontrol−Absblank}]*100. The cell viability of compounds 2, 3 and 4 (e.g., viability of cells following treatment with compounds 2, 3, or 4 was assessed) is shown in FIG. 1b, and is consistent with the results shown in FIG. 1a. LC50 values were determined and are as follows.

As to `CC(C)(OC(=O)C=Cc1ccc(O)cc1)C1Cc2c(ccc3ccc(=O)oc23)O1` (centres unmarked) [Angelmarin, 11-O-(p-hydroxy-cinnamoyl) columbianetin], the “cytotoxicity against PANC-1 under nutrient starvation conditions” value in data set [1] is on record as “exhibit cytotoxicity”.
Regarding `CC(C)=CCOc1ccc2oc(=O)ccc2c1` [Compound 2, 6-((3-methylbut-2-en-1-yl)oxy)-2H-chromen-2-one], in the data set with PANC-1 cells [2], the CC50 is over 100 µM and the “cytotoxicity towards PANC-1 cells under nutrient starvation conditions” value (shortened to “cytotoxicity towards PANC-1 cells”) is “preferential cytotoxicity”. In the data set on PANC-1 cells [3], the “cytotoxic activity when cells cultured under nutrient-rich conditions” value (“cytotoxic activity when cells cultured” for short) is “no significant cytotoxic activity”.
`CC(C)=CCC/C(C)=C/COc1ccc2oc(=O)ccc2c1` [Compound 3, (E)-6-((3,7-dimethylocta-2,6-dien-1-yl)oxy)-2H-chromen-2-one]: in the data set with PANC-1 cells [2], the CC50 came to 12 µM and the “cytotoxicity towards PANC-1 cells” value was “preferential cytotoxicity”. Besides, the “cytotoxic activity when cells cultured” value in the data set with PANC-1 cells [3] was “no significant cytotoxic activity”.
Take `CC(C)=CCC/C(C)=C/CC/C(C)=C/COc1ccc2oc(=O)ccc2c1` [Compound 4, 6-(((2E,6E)-3,7,11-trimethyldodeca-2,6,10-trien-1-yl)oxy)-2H-chromen-2-one]: in the data set on PANC-1 cells [2], the CC50 worked out at 4 µM and the “cytotoxicity towards PANC-1 cells” value is recorded as “preferential cytotoxicity”. In the data set on PANC-1 cells [3], the “cytotoxic activity when cells cultured” value was “no significant cytotoxic activity”. For the same molecule, in the data set on PANC-1 cells [4], the “morphological changes to PANC-1 cells” value is “induced apoptosis-like morphological changes”.

The values are drawn from US9403791B1, “Coumarin derivatives for cancer therapy” (Wellesley College, priority 2013, dated 2016).
